≈ marks a conversion by molar mass, not a printed value.
How the values were obtained:
[1] = system: GM-CSF production by KM-102 cells; test: Stimulation of GM-CSF production (KM-102 cells; GM-CSF assayed by growth of TF-1 cells); format: cell-based, human; conditions: for EC50: Homo sapiens, 24 hours, TF-1 cell growth, read-out: ED50 for stimulation of GM-CSF production; for EC50 / induction of GM-CSF production (in words): KM-102 cells
From the text: (§1) The ability of the leustroducsins to stimulate the production of hematopoietic factors in accordance with the present invention can, in principle, be assayed by the method by Kohama et al. [Experimental Hematology 16, 603-608 (1988)]. In this method, a production system for various hematopoietic factors and an assay system for various hematopoietic factors are combined. KM-102 cells, for example, which originated from human bone marrow stromal cells, my be employed to produce various hematopoietic factors. However, any cells capable of the production of various hematopoietic factors may be used instead, for example primary cultured bone marrow stromal cells, vascular endothelial cells, lymphocytes, or macrophages which exist in the bone marrow. A test sample of the compound whose activity is to be assessed is diluted to a suitable concentration and added the culture system containing the cells which produce various hematopoietic factors ("HF-producing cells"). After a suitable period, usually 24 hours, a part of the supernatant of the culture medium is taken, and added to a culture system of cells which are dependent on various hematopoietic factors, for example, TF-1 cells and NFS-60 cells, ("HF-dependent cells") at a suitable concentration. After a certain time, the amount of hematopoietic factors can be measured by measuring the growth of the HF-dependent cells, and thus the ability of the compound to stimulate the production of various hematopoietic factors can be assayed. The growth of the HF-dependent cells may be determined by any conventional method, such as the incorporation of tritium-thymidine by the cells or using an MTT [3-(4,5-dimethylthiazol-2-yl)-2,5-diphenyltetrazolium bromide] assay method (Chemicon International Inc., USA). The assay of various hematopoietic factors may be carried out by any conventional method, such as the colony-forming method or the ELISA method.
Determination of the stimulation of GM-CSF production by the compounds of the present invention was carried out, in principle, using a combination of the method of Kohama et al. [Experimental Hematology 16, 603-608 (1988)] and that of Kitamura et al. [Journal of Cellular Physiology 140, 323-334 (1989)]. In more detail, KM-102 cells originating from human bone marrow stromal cells, which served as to produce GM-CSF, were mixed with a test sample solution diluted to a suitable concentration (the "GM-CSF producing system"). After incubation for 24 hours, a part of the culture supernatant was taken and was added to a culture system of GM-CSF-dependent human TF-1 cells. After between 48 and 72 hours, the amount of GM-CSF was measured by the growth of TF-1 cells (the "GM-CSF assay system") to obtain a measure of the stimulation of GM-CSF production. The growth of TF-1 cells was determined by tritium thymidine pulse-labelling for 4 hours. Similar results were obtained also by means of an MTT kit (Chemicon International Inc. USA) to assay the growth of TF-1 cells and by means of an ELISA kit (Genzyme Inc. USA) to assay the GM-CSF. Whether the GM-CSF production inducing system functioned normally or not was assayed by means of recombinant interleukin 1β (IL-1β: Genzyme Inc. USA).

[2] = system: G-CSF production by KM-102 cells; test: Stimulation of G-CSF production (KM-102 cells; G-CSF assayed by growth of NFS-60 cells); format: cell-based, human; conditions: for EC50: Homo sapiens, 24 hours, NFS-60 cell growth, read-out: ED50 for stimulation of G-CSF production; for EC50 / induction of G-CSF production (in words): KM-102 cells
From the text: as §1
Stimulation of G-CSF production was assayed by a system in which the GM-CSF assay system employed inTest Example 1 was replaced by a G-CSF assay system [as described by Shirafuji et al.: Experimental Hematology 17, 116-119 (1989)]. In more detail, KM-102 cells originating from human bone marrow stromal cells, which served to produce G-CSF, were added to a leustroducsin solution diluted to a suitable concentration (the "G-CSF producing system"). After incubation for 24 hours, a part of the culture supernatant was taken, and added to a culture system of G-CSF-dependent NFS-60 cells. After between 24 and 48 hours, the amount of G-CSF was assayed from the growth of NFS-60 cells (the "G-CSF assay system") to obtain a measure of the stimulation of G-CSF production. The growth of NFS-60 cells was determined by tritium-thymidine pulse-labelling for 4 hours. Similar results were also obtained by means of an MTT kit to assay the growth of NFS-60 cells and by means of an ELISA kit to assay the G-CSF [Motojima et al.: Journal of Immunological Methods 118, 187-192 (1989)]. Whether the G-CSF production inducing system functioned normally or not was assayed by means of recombinant interleukin 1 β (IL-1β: Genzyme Inc. USA).

Solubility / nature = format: physicochemical
Acute toxicity = format: in vivo, ddY mice (male)
Protocol: According to the conventional procedure, the acute toxicity was tested in five ddY mice (male).

[3] = similarly tested, dose not separately printed

Compound | EC50 [1] [µg/mL] | induction of GM-CSF production (in words) [1] | EC50 [2] [µg/mL] | induction of G-CSF production (in words) [2] | Nature (Solubility / nature) | Solubility in hexane (Solubility / nature) | Solubility in organic solvents (Solubility / nature) | Solubility in water (Solubility / nature) | acute toxicity (Acute toxicity; intraperitoneal, 0.2 mg/kg, 5 days, five mice) | acute toxicity (Acute toxicity; [3]) | induction of GM-CSF production by IL-1β (in words) ([1]; 1 to 100 units/ml) | induction by IL-1β, printed as GM-CSF production in the G-CSF test (in words) ([2]; 1 to 100 units/ml)
CCC1C=CC(=O)OC1/C=C/C(O)(CCN)C(CC(O)/C=C\C=C/C1CCCC(OC(=O)CCCC(C)C)C1)OP(=O)(O)O (centres unmarked) [Leustroducsin A] | 0.18 | induced in a dose-dependent manner | 0.2 (≈ 0.312 µM) | induced in a dose-dependent fashion | Acidic and fat soluble | insoluble in hexane | Soluble in alcohols, such as methanol, ethanol or butanol; and soluble in acetone, chloroform, ethyl acetate and dimethyl sulfoxide | limited solubility in water | no toxicity was observed | – | – | –
CCC(C)CCCCC(=O)OC1CCCC(/C=C\C=C/C(O)CC(OP(=O)(O)O)C(O)(/C=C/C2OC(=O)C=CC2CC)CCN)C1 (centres unmarked) [Leustroducsin B] | 0.05 | induced in a dose-dependent manner | 0.05 (≈ 0.0746 µM) | induced in a dose-dependent fashion | Acidic and fat soluble | insoluble in hexane | Soluble in alcohols, such as methanol, ethanol or butanol; and soluble in acetone, chloroform, ethyl acetate and dimethyl sulfoxide | limited solubility in water | – | no toxicity was observed | – | –
CCC1C=CC(=O)OC1/C=C/C(O)(CCN)C(CC(O)/C=C\C=C/C1CCCC(OC(=O)CCCCCC(C)C)C1)OP(=O)(O)O (centres unmarked) [Leustroducsin C] | 0.05 | induced in a dose-dependent manner | 0.05 (≈ 0.0746 µM) | induced in a dose-dependent fashion | Acidic and fat soluble | insoluble in hexane | Soluble in alcohols, such as methanol, ethanol or butanol; and soluble in acetone, chloroform, ethyl acetate and dimethyl sulfoxide | limited solubility in water | – | no toxicity was observed | – | –
IL-1β: recombinant interleukin 1β (IL-1β: Genzyme Inc. USA) | – | – | – | – | – | – | – | – | – | – | induced GM-CSF production in a dose-dependent manner | induced GM-CSF production in a dose-dependent fashion
